Laboratory results taken from ChEMBL document CHEMBL1201862, “PubChem BioAssay data set” (2004).
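Step 1: Grow cells in 96-well plates. Step 2: Expose to compound for 48 hours at 5 concentrations. Step 3: Interpolate endpoints linearly; if unreached, use highest concentration. GI50 = concentration required for 50% inhibition of growth.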 Active and inactive are the calls of the source. No stated cut-off is given here; in the data, active = GI50 up to about 1.1 µM and inactive = higher.

Experiments:
Test in all cases: NCI tumour cell line growth inhibition, 48 h
ACHN = tested on: ACHN
CCRF-CEM = tested on: CCRF-CEM
COLO 205 = tested on: COLO 205
EKVX = tested on: EKVX
HCC 2998 = tested on: HCC 2998
HOP-92 = tested on: HOP-92
MDA-MB-231 = tested on: MDA-MB-231
MOLT-4 = tested on: MOLT-4
NCI-H23 = tested on: NCI-H23
OVCAR-5 = tested on: OVCAR-5
OVCAR-8 = tested on: OVCAR-8
RPMI-8226 = tested on: RPMI-8226
RXF 393 = tested on: RXF 393
SF-295 = tested on: SF-295
SK-MEL-5 = tested on: SK-MEL-5
U-251 = tested on: U-251
UO-31 = tested on: UO-31
786-0 = tested on: 786-0
NCI-H226 = tested on: NCI-H226
SR = tested on: SR

Measured: GI50

COC(=O)C1=C(C(=O)OC)SC2(S1)C1=C(CCCC1)SC(C(=O)OC)=C2C(=O)OC
active: RPMI-8226 0.586 µM
inactive: ACHN 6.05 µM | CCRF-CEM 1.7 µM | COLO 205 9.25 µM | EKVX 13.3 µM | HCC 2998 12.3 µM | HOP-92 7.82 µM | MDA-MB-231 15.8 µM | MOLT-4 1.93 µM | NCI-H23 15.8 µM | OVCAR-5 12.6 µM | OVCAR-8 6.32 µM | RXF 393 2.33 µM | SF-295 14.6 µM | SK-MEL-5 10.1 µM | U-251 6.67 µM | UO-31 4.58 µM

CCOc1ccc(NCC(=O)N2CC(=O)Nc3ccccc32)cc1
inactive: 786-0 > 100 µM | ACHN > 100 µM | CCRF-CEM > 100 µM | COLO 205 > 100 µM | EKVX > 100 µM | HCC 2998 > 100 µM | HOP-92 > 100 µM | MOLT-4 > 100 µM | NCI-H226 > 100 µM | NCI-H23 > 100 µM | OVCAR-5 > 100 µM | OVCAR-8 > 100 µM | RPMI-8226 > 100 µM | RXF 393 > 100 µM | SF-295 > 100 µM | SK-MEL-5 > 100 µM | SR > 100 µM | U-251 > 100 µM | UO-31 > 100 µM

O=c1c2c3c(sc2nc2n1NC=NN2)CCCC3
active: CCRF-CEM 0.731 µM | MOLT-4 0.323 µM
inactive: 786-0 17.6 µM | ACHN 16.7 µM | COLO 205 25.4 µM | EKVX 13.3 µM | HCC 2998 24.4 µM | HOP-92 18.1 µM | MDA-MB-231 13.4 µM | NCI-H226 17.3 µM | NCI-H23 26.2 µM | OVCAR-5 18.2 µM | OVCAR-8 24.7 µM | RPMI-8226 20.5 µM | RXF 393 25.2 µM | SF-295 15.8 µM | SK-MEL-5 16.4 µM | U-251 16 µM | UO-31 > 44.7 µM

O=[N+]([O-])c1ccc(NC(=S)N/N=C(\c2ccccc2)c2ccccn2)cc1
inactive: 786-0 1.25 µM | ACHN 1.16 µM | HCC 2998 1.51 µM | HOP-92 1.87 µM | NCI-H226 1.47 µM | NCI-H23 2.18 µM | OVCAR-5 1.88 µM | RPMI-8226 4.74 µM | RXF 393 1.38 µM | SF-295 1.55 µM | SK-MEL-5 1.36 µM | U-251 1.36 µM | UO-31 1.46 µM
active: CCRF-CEM < 0.0184 µM | COLO 205 0.312 µM | EKVX 0.231 µM | MDA-MB-231 < 0.01 µM | MOLT-4 < 0.0314 µM | OVCAR-8 0.037 µM

O=C1CC(Br)c2c(Br)sc(Br)c21 (stereo not drawn)
inactive: 786-0 16.3 µM | ACHN 17.7 µM | CCRF-CEM 2.51 µM | COLO 205 19.8 µM | EKVX 19.3 µM | HOP-92 17.7 µM | MDA-MB-231 18.9 µM | NCI-H226 29.8 µM | NCI-H23 16.7 µM | OVCAR-5 17.9 µM | OVCAR-8 16.1 µM | RPMI-8226 8.04 µM | RXF 393 18.3 µM | SF-295 27.7 µM | SK-MEL-5 19.8 µM | U-251 17.3 µM | UO-31 16.4 µM
active: MOLT-4 0.906 µM

C=CC(O)(CBr)CCC(Br)C(=C)C (stereo not drawn)
inactive: 786-0 > 10 µM | ACHN > 10 µM | CCRF-CEM > 10 µM | COLO 205 > 10 µM | EKVX > 10 µM | HCC 2998 > 10 µM | MDA-MB-231 > 10 µM | MOLT-4 > 10 µM | NCI-H226 > 10 µM | NCI-H23 > 10 µM | OVCAR-5 > 10 µM | OVCAR-8 > 10 µM | RPMI-8226 > 10 µM | RXF 393 > 10 µM | SF-295 > 10 µM | SK-MEL-5 > 10 µM | U-251 > 10 µM

Cc1cc(NS(=O)(=O)c2ccc(NC(=O)COC(=O)c3cccc4c(=O)c5ccccc5[nH]c34)cc2)no1
inactive: 786-0 > 100 µM | ACHN > 100 µM | CCRF-CEM > 100 µM | COLO 205 > 100 µM | EKVX > 100 µM | HCC 2998 > 100 µM | HOP-92 > 100 µM | MOLT-4 > 100 µM | NCI-H226 > 100 µM | NCI-H23 > 100 µM | OVCAR-5 > 100 µM | OVCAR-8 > 100 µM | RPMI-8226 > 100 µM | RXF 393 > 100 µM | SF-295 > 100 µM | SK-MEL-5 > 100 µM | SR > 100 µM | U-251 > 100 µM | UO-31 > 100 µM
